From US11046722B2, “Sulphated disaccharides for the treatment of neuropathic pain” (BIOIBERICA, S.A.U., priority 2017, dated 2021)

How the values were obtained:
[1] = test system: mechanical allodynia induced in mice by chronic ligation of the sciatic nerve; assay: Mechanical allodynia produced by chronic ligation of the sciatic nerve (von Frey, 50% pain threshold); type: in vivo; conditions: 7 days after surgery, 45 minutes before measurement
Excerpt: In Example 2, an experimental trial on mechanical allodynia induced in mice by chronic ligation of the sciatic nerve is described, according to the model described in the article by Decosterd et al., Spared nerve injury: an animal model of persistent peripheral neuropathic pain, Pain, 2000, 149-158. This model is based on causing mechanical allodynia in mice by means of ligation of two of the three branches of the sciatic nerve (tibial and peroneal), leaving the sural branch intact. The allodynia induced in this manner is quantified by the reduction observed in the threshold force that is necessary to apply in order to produce animal's paw withdrawal in those subjected to the ligation. As described in such example, it is observed that the administration of different doses of compound Ic is effective in reversing the allodynia induced in this model (FIGS. 1 and 2).
For this trial, groups of 6 to 7 mice were used for each group. Mechanical allodynia was induced in the animals (except for the control group) by chronic ligation of the sciatic nerve, and the allodynia induced in this manner was registered 7 days after performing the surgery.
Compound Ic was administered at different doses (3, 30 and 60 mg/Kg) as well as only saline solution as a control, and the positive control gabapentin (40 mg/Kg). The products were administered by stomach tube 45 minutes before performing the allodynia measurement, which was quantified using von Frey filaments, according to the force threshold necessary to cause paw withdrawal of the animal.
The results are summarized in FIG. 2, where the Y-axis represents half of the threshold force that is necessary to apply in order to cause paw withdrawal (50% pain threshold, in grams, g) and the X-axis indicates the different groups and treatments carried out. […]
An analogous test was carried out in which several doses of compound Ic (30, 60 and 120 mg/Kg) and gabapentin (40 mg/Kg) were administered, and the 50% pain threshold was measured at different times after the administration in order to evaluate the kinetic of the pharmacological effect and the total duration of the anti-allodynic effect. […]

[2] = test system: allodynia induced in mice by injecting paclitaxel; assay: Neuropathic pain induced by chemotherapy (paclitaxel): reversal by a single dose after induction; type: in vivo; conditions: paclitaxel 2 mg/Kg i.p. for 5 days, day 10, single oral dose, increasing doses 7.5, 15 and 30 mg/Kg, 45 minutes after administration
Method: In Example 3 an experimental model is used in mice based on inducing allodynia by intraperitoneal injection of paclitaxel, as described in the articles by Smith et al., Paclitaxel-induced neuropathic hypersensitivity in mice: responses in 10 inbred mouse strains, Life Sci., 2014, 2593-2604 and Palomano et al., Chemotherapy-evoked painful peripheral neuropathy, Pain Med., 2001, 2 (1), 8-14. In alternative trials, compound Ic was administered after allodynia induction by paclitaxel, or it was administered jointly with this chemotherapy medication. It is observed that compound Ic is effective at both reversing the allodynia induced by paclitaxel (FIG. 4), and preventing the development thereof when coadministered with paclitaxel (FIG. 5).
In this test, groups of mice between 7 and 12 animals were used, to which a daily dose of paclitaxel of 2 mg/Kg was administered by intraperitoneal route for 5 consecutive days (except for the control group). The evaluation of the induced mechanical allodynia was carried out on the 10th day after the first paclitaxel injection, and was quantified by using the von Frey filaments, according to the force threshold necessary to cause the paw withdrawal of the animal. […]

Compound: CO[C@H]1O[C@H](COS(=O)(=O)[O-])[C@@H](OS(=O)(=O)[O-])[C@H](O[C@@H]2O[C@H](C(=O)[O-])[C@@H](O)[C@H](O)[C@H]2O)[C@H]1NC(C)=O.[Na+].[Na+].[Na+] [Compound Ic, methyl 2-acetamido-2-desoxi-3-O-(β-D-glucopyranosyluronic acid)-4,6-di-O-sulfo-α-D-glucopyranoside trisodium salt]
- anti-allodynic effect ([1]; 3 mg/Kg by stomach tube): notable
- anti-allodynic effect ([1]; 30 mg/Kg by stomach tube): notable
- analgesic effect ([1]; 60 mg/Kg by stomach tube): achieved an analgesic effect
- reversal of the allodynia ([1]; 60 mg/Kg by stomach tube): total reversal of the allodynia
- reversal of paclitaxel-induced allodynia [2]: reversed the paclitaxel-induced allodynia
